Measurements as given in ChEMBL document CHEMBL5291721, “A preclinical secondary pharmacology resource illuminates target-adverse drug reaction associations of marketed drugs” (Nat Commun, 2023).

Experiments:
[1] = biological target: T1, Alpha-2A adrenergic receptor (Homo sapiens, UniProt P08913)
T1 sequence (P08913 whole entry): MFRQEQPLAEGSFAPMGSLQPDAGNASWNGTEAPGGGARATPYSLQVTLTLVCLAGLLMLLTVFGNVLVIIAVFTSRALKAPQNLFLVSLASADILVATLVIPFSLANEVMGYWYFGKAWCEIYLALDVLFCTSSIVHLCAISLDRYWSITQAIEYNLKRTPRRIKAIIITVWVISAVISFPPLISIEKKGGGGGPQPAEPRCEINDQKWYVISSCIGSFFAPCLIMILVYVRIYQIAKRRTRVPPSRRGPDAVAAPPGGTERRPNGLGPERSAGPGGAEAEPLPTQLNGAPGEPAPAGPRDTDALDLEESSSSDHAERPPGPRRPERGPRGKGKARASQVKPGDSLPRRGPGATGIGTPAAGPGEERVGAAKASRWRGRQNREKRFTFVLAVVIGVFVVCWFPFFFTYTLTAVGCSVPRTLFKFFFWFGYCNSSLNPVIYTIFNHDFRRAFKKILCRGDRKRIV

[2] = biological target: Gamma-aminobutyric acid receptor subunit alpha-1 (Rattus norvegicus, UniProt P62813)
[3] = biological target: Histamine H3 receptor (Homo sapiens, UniProt Q9Y5N1)
[4] = biological target: T2, 5-hydroxytryptamine receptor 1A (Homo sapiens, UniProt P08908)
T2 sequence (P08908 whole entry): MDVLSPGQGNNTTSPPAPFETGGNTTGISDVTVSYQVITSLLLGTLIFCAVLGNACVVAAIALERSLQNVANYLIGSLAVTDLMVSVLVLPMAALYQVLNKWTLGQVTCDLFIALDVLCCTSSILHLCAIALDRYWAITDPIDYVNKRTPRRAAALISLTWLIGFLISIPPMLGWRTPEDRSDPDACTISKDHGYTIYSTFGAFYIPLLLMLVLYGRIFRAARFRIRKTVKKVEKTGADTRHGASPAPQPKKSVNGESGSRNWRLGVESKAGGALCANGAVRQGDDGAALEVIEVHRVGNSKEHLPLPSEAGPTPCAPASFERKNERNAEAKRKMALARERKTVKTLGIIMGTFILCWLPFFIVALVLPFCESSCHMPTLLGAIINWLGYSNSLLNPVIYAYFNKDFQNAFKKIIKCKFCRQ

[5] = biological target: T3, Thromboxane A2 receptor (Homo sapiens, UniProt P21731); assay type: functional, cell-based
T3 sequence (P21731 whole entry): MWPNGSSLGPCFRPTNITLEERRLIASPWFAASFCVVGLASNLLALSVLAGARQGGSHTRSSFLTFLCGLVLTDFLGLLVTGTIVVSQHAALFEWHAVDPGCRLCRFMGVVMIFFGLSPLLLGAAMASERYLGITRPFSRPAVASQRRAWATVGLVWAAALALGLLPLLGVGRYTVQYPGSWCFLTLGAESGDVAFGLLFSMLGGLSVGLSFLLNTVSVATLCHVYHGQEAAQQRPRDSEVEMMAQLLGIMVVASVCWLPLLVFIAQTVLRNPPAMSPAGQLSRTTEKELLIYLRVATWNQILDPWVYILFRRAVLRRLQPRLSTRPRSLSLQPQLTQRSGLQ

[6] = biological target: T3, Thromboxane A2 receptor; assay type: functional, cell-based; remark: listed apart in the source
[7] = biological target: T4, Muscarinic acetylcholine receptor M4 (Homo sapiens, UniProt P08173)
T4 sequence (P08173 whole entry): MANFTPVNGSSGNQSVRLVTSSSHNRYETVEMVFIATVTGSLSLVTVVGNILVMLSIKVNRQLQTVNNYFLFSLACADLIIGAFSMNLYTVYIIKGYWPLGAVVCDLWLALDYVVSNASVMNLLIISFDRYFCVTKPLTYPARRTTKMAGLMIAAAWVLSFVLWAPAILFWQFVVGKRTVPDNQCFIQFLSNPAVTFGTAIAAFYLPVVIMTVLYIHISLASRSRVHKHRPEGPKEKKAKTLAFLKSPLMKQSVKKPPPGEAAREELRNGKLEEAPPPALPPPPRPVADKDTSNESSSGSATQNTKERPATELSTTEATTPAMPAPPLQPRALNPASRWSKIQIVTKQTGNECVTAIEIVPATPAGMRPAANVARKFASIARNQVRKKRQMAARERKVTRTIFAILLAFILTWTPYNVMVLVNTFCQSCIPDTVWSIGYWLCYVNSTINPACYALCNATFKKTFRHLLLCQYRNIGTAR

[8] = biological target: T5, Muscarinic acetylcholine receptor M5 (Homo sapiens, UniProt P08912)
T5 sequence (P08912 whole entry): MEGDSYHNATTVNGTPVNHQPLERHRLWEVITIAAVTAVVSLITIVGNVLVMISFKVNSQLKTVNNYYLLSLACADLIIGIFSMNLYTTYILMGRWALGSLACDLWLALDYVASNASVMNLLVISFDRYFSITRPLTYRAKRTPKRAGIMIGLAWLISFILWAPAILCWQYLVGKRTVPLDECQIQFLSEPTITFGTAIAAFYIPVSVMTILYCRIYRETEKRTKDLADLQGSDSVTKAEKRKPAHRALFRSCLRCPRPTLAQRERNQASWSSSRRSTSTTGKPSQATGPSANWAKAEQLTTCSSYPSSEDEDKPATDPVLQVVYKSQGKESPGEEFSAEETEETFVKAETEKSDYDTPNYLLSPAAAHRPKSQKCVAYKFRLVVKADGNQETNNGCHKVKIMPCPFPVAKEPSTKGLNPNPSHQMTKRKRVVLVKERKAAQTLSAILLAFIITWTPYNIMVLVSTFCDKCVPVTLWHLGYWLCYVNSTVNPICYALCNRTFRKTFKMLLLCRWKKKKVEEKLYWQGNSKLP

[9] = biological target: Rod cGMP-specific 3',5'-cyclic phosphodiesterase subunit alpha (Homo sapiens, UniProt P16499); assay type: functional
Further: assay procedure not described here.

Sequence of Rod cGMP-specific 3',5'-cyclic phosphodiesterase subunit alpha (P16499 whole entry): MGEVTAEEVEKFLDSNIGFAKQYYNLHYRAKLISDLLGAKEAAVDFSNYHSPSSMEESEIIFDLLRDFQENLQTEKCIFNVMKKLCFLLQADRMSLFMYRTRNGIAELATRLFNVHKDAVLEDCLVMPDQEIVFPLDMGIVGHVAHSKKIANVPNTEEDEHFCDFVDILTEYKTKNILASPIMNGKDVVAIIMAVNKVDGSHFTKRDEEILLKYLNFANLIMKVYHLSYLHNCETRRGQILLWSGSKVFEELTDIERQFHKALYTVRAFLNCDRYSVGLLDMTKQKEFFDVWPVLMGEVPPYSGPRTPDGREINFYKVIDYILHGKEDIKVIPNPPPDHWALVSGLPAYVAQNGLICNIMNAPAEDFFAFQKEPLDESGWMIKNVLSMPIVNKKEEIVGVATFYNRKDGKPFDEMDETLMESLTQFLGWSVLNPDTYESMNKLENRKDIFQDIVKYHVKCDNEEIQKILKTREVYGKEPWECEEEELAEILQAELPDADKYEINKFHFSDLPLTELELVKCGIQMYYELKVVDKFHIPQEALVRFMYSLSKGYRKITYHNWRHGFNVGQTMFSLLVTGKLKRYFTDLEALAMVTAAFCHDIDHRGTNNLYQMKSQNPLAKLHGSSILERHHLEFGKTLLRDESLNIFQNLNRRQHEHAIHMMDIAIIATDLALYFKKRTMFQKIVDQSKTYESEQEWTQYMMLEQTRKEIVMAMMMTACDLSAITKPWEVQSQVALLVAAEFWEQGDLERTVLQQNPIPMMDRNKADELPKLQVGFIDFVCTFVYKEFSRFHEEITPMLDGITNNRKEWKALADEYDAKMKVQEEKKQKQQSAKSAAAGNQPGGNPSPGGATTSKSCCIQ
Sequence of Histamine H3 receptor (Q9Y5N1 whole entry): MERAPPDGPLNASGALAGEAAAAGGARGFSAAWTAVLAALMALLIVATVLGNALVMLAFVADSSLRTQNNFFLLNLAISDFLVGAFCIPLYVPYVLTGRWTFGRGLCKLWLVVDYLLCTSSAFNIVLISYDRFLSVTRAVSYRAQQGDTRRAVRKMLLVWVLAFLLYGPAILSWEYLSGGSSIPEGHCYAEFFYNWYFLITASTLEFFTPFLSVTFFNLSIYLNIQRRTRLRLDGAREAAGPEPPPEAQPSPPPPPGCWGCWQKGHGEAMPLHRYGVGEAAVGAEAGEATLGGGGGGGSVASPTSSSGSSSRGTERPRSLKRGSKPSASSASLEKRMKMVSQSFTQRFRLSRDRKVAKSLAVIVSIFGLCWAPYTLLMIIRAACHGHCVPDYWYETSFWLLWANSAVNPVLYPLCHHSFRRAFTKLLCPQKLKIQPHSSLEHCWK
Sequence of Gamma-aminobutyric acid receptor subunit alpha-1 (P62813 whole entry): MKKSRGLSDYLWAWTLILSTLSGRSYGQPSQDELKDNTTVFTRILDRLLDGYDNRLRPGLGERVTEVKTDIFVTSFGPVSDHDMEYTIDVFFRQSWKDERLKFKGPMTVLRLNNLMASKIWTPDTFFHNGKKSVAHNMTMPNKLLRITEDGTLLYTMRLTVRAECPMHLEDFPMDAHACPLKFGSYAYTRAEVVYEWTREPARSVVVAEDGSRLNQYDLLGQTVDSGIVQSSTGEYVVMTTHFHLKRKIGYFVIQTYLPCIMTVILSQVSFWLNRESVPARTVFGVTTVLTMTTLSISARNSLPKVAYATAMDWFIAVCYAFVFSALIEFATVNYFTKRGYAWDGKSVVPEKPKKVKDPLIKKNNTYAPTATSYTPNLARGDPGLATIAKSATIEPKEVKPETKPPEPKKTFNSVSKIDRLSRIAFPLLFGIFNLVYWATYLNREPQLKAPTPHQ

| Compound | AC50 [1] | AC50 [2] | AC50 [3] | AC50 [4] | AC50 [5] | AC50 [6] | AC50 [7] | AC50 [8] | AC50 [9] |
| --- | --- | --- | --- | --- | --- | --- | --- | --- | --- |
| NCCCC(O)(P(=O)(O)O)P(=O)(O)O [ALENDRONIC ACID] | > 30 µM | > 30 µM | > 30 µM | > 30 µM | > 30 µM | > 30 µM | – | – | – |
| COC1=C(OC)C(=O)C(CCCCCCCCCCO)=C(C)C1=O [IDEBENONE] | – | – | – | – | – | – | > 10 µM | > 10 µM | > 10 µM |
| O=C1CN=C(c2ccccc2)c2cc(Cl)ccc2N1 [NORDAZEPAM] | – | – | – | – | – | – | > 10 µM | > 10 µM | > 10 µM |
| CC(CCc1ccccc1)NC(C)C(O)c1ccc(O)cc1 (stereo not drawn) [NYLIDRIN] | – | – | – | – | – | – | > 10 µM | > 10 µM | > 10 µM |
| O=C1Nc2ccc(Cl)cc2C(c2ccccc2)=NC1O (stereo not drawn) [OXAZEPAM] | – | – | – | – | – | – | > 10 µM | > 10 µM | > 10 µM |
| C[n+]1ccccc1/C=N/O [PRALIDOXIME] | > 30 µM | > 30 µM | > 30 µM | > 30 µM | > 30 µM | > 30 µM | – | – | – |
| N#C[C@@H]1CCCN1C(=O)CNC12CC3CC(CC(O)(C3)C1)C2 [VILDAGLIPTIN] | – | – | – | – | – | – | > 10 µM | > 10 µM | > 10 µM |
| COLISTIN | > 30 µM | > 30 µM | > 30 µM | > 30 µM | > 30 µM | > 30 µM | – | – | – |
